Our source for the IC50 values is patent US8217050B2, “Adenine derivative as inhibitors of HSP90 for the treatment of cancer” (Chroma Therapeutics Limited, priority 2006, dated 2012).

pIC50: −log10 of the molar value.

Test [1] has as its target T1, human recombinant his-tagged HSP90α (Homo sapiens, UniProt P07900).
T1 construct: purchased Prospec Technogene #HSP90
The test can be described thus: Hsp90 HTRF assay (competition with biotinylated GM for binding to HSP90). The following applies: bio-GM displacement, 20 h incubation at room temperature, read-out: Inhibitor Activity vs Hsp90. An excerpt: An HTRF (homogeneous time resolved fluorescence assay) assay was used to measure the interaction of the compounds with HSP90.
The assay measures binding of biotinylated GM (bio-GM; Biomol, #EI-341, lot: A9199a) to human recombinant his-tagged HSP90α (HSP90; Prospec Technogene, #HSP90, lot: 260HSP9001). A signal is generated by fluorescence resonance energy transfer from an Europium-cryptate labeled anti-his antibody (anti-6HIS-Cryptate; Cisbio International, #61HISKLA, lot: 33V) via the HSP90-GM-biotin complex to a fluorescence acceptor (allophycocyanin) linked to streptavidin (SA-XL; Cisbio International, #610SAXLB, lot: 089).
Unlabeled GM or compounds compete with the bio-GM for binding to HSP90 resulting in reduced fluorescence energy transfer/assay signal.
For the assay a preformed (1 h incubation) complex of HSP90 with the anti-his-K is added to the compound solution in a 384 well microplate (Corning, #3710) and incubated for 15 min. A preformed (1 h incubation) complex of bio-GM with the SA-XL was added to the wells and incubated for 20 h. All incubations were performed at room temperature. The final assay volume was 50 μl/well. The final concentrations in the assay were: 50 mM Hepes pH 7.3, 50 mM NaCl, 100 mM KF, 1 mM EDTA, 1 mM DTT, 0.1% Triton-X-100, 1 nM anti-his-K, 40 nM HSP90, 40 nM SA-XL, 40 nM bio-GM. Test compounds were dissolved in DMSO, prediluted in assay buffer and tested at a final concentration between 5000 nM and 0.3 nM. The resulting DMSO concentration was 0.5% and included in all controls. High controls were without test compounds, low controls without test compounds, without HSP90 and without bio-GM. As a reference inhibitor unlabeled GM was used in the same concentrations as the test compounds.
Inhibition was calculated compared to the assay controls using an Excel spreadsheet (Microsoft). IC50 values were calculated by non-linear least squares fitting to the standard dose-response model using GraphPad Prism (GraphPad Software Inc).

The next test deals with HCT 116 cell line. The test can be described thus: Cell inhibition assay (WST-1 cell proliferation, 120 hrs). The following applies: Homo sapiens, HCT-116, 120 hrs, read-out: Inhibitor Activity vs HCT 116 cell line. Type of test: cell-based. The protocol: Cells were seeded in 96W tissue culture plates (1 well=30 mm^2) at a density of 500 cells per well in 50 μl of the appropriate culture medium (see below). 24 hrs later 50 μl of the compound prepared in the same medium was added as 4 fold dilutions to give final concentrations in the range 0.15 nM-2500 nM (n=6 for each concentration). The plates were then incubated at 37° C., 5% CO2 for 120 hrs. Cell proliferation was assessed using WST-1 (a metabolic indicator dye, Roche Cat no. 1 644 807) according to the manufacturers instructions. The results were calculated as percentage of vehicle response and IC50 values represent the concentration of compound that inhibited the vehicle response by 50%. HCT-116 Culture Medium—Dulbeccos MEM (Sigma D6546) plus 10% heat inactivated fetal calf serum (Hyclone SH30071 Thermo Fischer Scientific) containing 2 mM Glutamine (Sigma cat no G-7513) and 50 U/ml Penicillin and Streptomycin Sulphate (Sigma Cat no P-0781).
Data were expressed as a percentage inhibition of the control, measured in the absence of inhibitor, as follows: % inhibition=100−((S^i/S^o)×100) where S^i is the signal in the presence of inhibitor and S0 is the signal in the presence of DMSO.
IC50 values were determined by non-linear regression analysis, after fitting the results of eight data points to the equation for sigmoidal dose response with variable slope (% activity against log concentration of compound), using Graphpad Prism® software.

In the case of `Nc1ncnc2c1nc(Sc1cc3c(cc1I)OCO3)n2CCC[C@H](N)C(=O)OC1CCCC1` [Example 1, (S)-Cyclopentyl 2-amino-5-(6-amino-8-(6-iodobenzo[d][1,3]dioxol-5-ylthio)-9H-purin-9-yl)pentanoate], the pIC50 (in test [1]; in the test with HCT 116 cell line) was over 6.00 each time.

On to `Nc1ncnc2c1nc(Sc1ccc3c(c1)OCO3)n2-c1ccc(C[C@H](N)C(=O)O)cc1` [Example 13, 4-{6-amino-8-[(1,3-benzodioxol-5-yl)thio]-9H-purin-9-yl}-L-phenylalanine], for which the pIC50 in test [1] is 5.00 to 6.00.

Regarding `CC(C)(C)OC(=O)[C@@H](N)CCCn1c(Sc2cc3c(cc2I)OCO3)nc2c(N)ncnc21` [Example 5, (S)-tert-Butyl 2-amino-5-(6-amino-8-(6-iodobenzo[d][1,3]dioxol-5-ylthio)-9H-purin-9-yl)pentanoate], the pIC50 was over 6.00 in test [1] and 5.00 to 6.00 with HCT 116 cell line.

On to `Nc1ncnc2c1nc(Sc1cc3c(cc1I)OCO3)n2CCC[C@@H](N)C(=O)OC1CCCC1` [Example 3, (R)-Cyclopentyl 2-amino-5-(6-amino-8-(6-iodobenzo[d][1,3]dioxol-5-ylthio)-9H-purin-9-yl)pentanoate], for which the pIC50 (in test [1]; in the test with HCT 116 cell line) was over 6.00 each time.

With `Nc1ncnc2c1nc(Sc1ccc3c(c1)OCO3)n2-c1ccc(C[C@H](N)C(=O)OC2CCCC2)cc1` [Example 7, Cyclopentyl 4-{6-amino-8-[(1,3-benzodioxol-5-yl)thio]-9H-purin-9-yl}-L-phenylalaninate], in test [1], the pIC50 was 5.00 to 6.00.

For `Nc1ncnc2c1nc(Sc1cc3c(cc1I)OCO3)n2CC[C@H](N)C(=O)O` [Example 10, (S)-2-amino-4-(6-amino-8-(6-iodobenzo[d][1,3]dioxol-5-ylthio)-9H-purin-9-yl)butanoic acid], in test [1], the pIC50 is over 6.00.

On to `Nc1ncnc2c1nc(Sc1cc3c(cc1Br)OCO3)n2-c1ccc(C[C@H](N)C(=O)OC2CCCC2)cc1` [Example 8, Cyclopentyl 4-{6-amino-8-[(6-bromo-1,3-benzodioxol-5-yl)thio]-9H-purin-9-yl}-L-phenylalaninate], for which the pIC50 in test [1] is 5.00 to 6.00.

Turning to `Nc1ncnc2c1nc(Sc1cc3c(cc1Br)OCO3)n2-c1ccc(C[C@H](N)C(=O)O)cc1` [Example 14, 4-{6-amino-8-[(6-bromo-1,3-benzodioxol-5-yl)thio]-9H-purin-9-yl}-L-phenyl alanine], the pIC50 in test [1] was over 6.00.

Take `Nc1ncnc2c1nc(Sc1cc3c(cc1I)OCO3)n2CCC[C@H](N)C(=O)O` [Example 9, (S)-2-amino-5-(6-amino-8-(6-iodobenzo[d][1,3]dioxol-5-ylthio)-9H-purin-9-yl)pentanoic acid]: the pIC50 in test [1] is over 6.00.

As for `Nc1ncnc2c1nc(Sc1cc3c(cc1I)OCO3)n2CC[C@@H](N)C(=O)OC1CCCC1` [Example 4, (R)-cyclopentyl 2-amino-4-(6-amino-8-(6-iodobenzo[d][1,3]dioxol-5-ylthio)-9H-purin-9-yl)butanoate], the pIC50 (in test [1]; in the test with HCT 116 cell line) was over 6.00 in each case.

As for `Nc1ncnc2c1nc(Sc1cc3c(cc1I)OCO3)n2C[C@H](N)C(=O)OC1CCCC1` [Example 6, Cyclopentyl 3-{6-amino-8-[(6-iodo-1,3-benzodioxol-5-yl)thio]-9H-purin-9-yl}-L-alaninate], the pIC50 in test [1] is over 6.00.

Consider `Nc1ncnc2c1nc(Sc1cc3c(cc1I)OCO3)n2CC[C@H](N)C(=O)OC1CCCC1` [Example 2, (S)-cyclopentyl 2-amino-4-(6-amino-8-(6-iodobenzo[d][1,3]dioxol-5-ylthio)-9H-purin-9-yl)butanoate], for which the pIC50 (in test [1]; in the test on HCT 116 cell line) was over 6.00 throughout.
